A short description of one data set: Log D. The data set is classed as physicochemical. An excerpt:
Table 2 Representative pharmacokinetic properties for cell-impermeable inhibitors 17 and 18. | column: 17; 18 (NCEG2)

In a further data set the test system is P-gp. The experiment in a line: MDCK cell permeability assay. The data set is classed as in vitro ADME. The following applies: dog, without Pgp inhibitor.
Data set [1] in a line: MDCK cell permeability assay. The data set is classed as in vitro ADME. The following applies: dog, without Pgp inhibitor.
Another data set concerns the target T1, TG1 (Homo sapiens, UniProt P22735).
T1 construct: purchased Zedira GmbH (Darmstadt, Germany)
T1 sequence (P22735 1-817): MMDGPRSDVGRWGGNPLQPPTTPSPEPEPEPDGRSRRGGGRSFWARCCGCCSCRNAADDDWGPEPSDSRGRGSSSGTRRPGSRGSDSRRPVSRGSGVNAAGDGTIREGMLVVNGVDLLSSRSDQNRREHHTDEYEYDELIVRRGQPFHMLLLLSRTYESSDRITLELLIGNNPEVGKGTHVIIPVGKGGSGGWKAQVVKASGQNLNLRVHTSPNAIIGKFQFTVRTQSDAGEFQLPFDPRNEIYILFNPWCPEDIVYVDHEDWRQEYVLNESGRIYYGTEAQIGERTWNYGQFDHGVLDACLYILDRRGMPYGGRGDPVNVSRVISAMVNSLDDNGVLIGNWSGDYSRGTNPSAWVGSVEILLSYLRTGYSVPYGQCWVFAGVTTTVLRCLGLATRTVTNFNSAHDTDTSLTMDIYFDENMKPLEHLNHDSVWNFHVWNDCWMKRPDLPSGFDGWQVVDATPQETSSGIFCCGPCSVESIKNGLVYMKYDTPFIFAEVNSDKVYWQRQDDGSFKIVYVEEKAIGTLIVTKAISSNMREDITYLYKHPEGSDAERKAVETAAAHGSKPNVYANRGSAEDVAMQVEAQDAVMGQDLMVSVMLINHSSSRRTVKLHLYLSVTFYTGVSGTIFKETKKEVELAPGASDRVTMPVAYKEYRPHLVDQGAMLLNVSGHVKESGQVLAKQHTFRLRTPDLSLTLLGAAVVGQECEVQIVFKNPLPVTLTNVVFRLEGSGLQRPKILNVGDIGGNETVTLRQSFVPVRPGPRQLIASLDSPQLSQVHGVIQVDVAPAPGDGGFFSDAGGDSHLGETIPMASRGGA
Description: TGase isozyme selectivity, TG1 with AL5 substrate. The data set is classed as biochemical. The note with it: [I]/α identical to that of the TG2 assay. An excerpt:
(§1) In the development of probes for TGases, isozyme selectivity is always a significant challenge. Since the catalytic machinery of the active sites of all TGases features a conserved Gly-Gln-Cys-Trp-Val sequence, selectivity for one isozyme over the others requires exploitation of slight differences in the protein substrate binding sites. In order to assess the isozyme selectivity of our cell-impermeable inhibitors, TG2 and four other therapeutically relevant TGases (Factor XIII, TG1, TG3, and TG6) were exposed to a concentration of inhibitor representing the same apparent competition with respect to the assay substrate (AL5 [38] or A101 [42, 43]). In other words, both the substrate and inhibitor concentrations were varied so that the [I]/α values were identical. […] This provides confidence that in further applications, these cell-impermeable inhibitors will selectively target TG2 over other transglutaminases.
(§2) To monitor the activity of TG3a and TG6, a FRET-quenched substrate A101 (Zedira Gmbh) was used. […] The isopeptidase activity of the respective TGase was then monitored at Ex/Em = 313/418 nm with a BioTek Synergy 4 plate reader at 25 °C. […]

In another data set the target is T2, FXIIIa (Homo sapiens, UniProt P00488).
T2 construct: purchased Zedira GmbH (Darmstadt, Germany)
T2 sequence (P00488 39-732 limits assumed): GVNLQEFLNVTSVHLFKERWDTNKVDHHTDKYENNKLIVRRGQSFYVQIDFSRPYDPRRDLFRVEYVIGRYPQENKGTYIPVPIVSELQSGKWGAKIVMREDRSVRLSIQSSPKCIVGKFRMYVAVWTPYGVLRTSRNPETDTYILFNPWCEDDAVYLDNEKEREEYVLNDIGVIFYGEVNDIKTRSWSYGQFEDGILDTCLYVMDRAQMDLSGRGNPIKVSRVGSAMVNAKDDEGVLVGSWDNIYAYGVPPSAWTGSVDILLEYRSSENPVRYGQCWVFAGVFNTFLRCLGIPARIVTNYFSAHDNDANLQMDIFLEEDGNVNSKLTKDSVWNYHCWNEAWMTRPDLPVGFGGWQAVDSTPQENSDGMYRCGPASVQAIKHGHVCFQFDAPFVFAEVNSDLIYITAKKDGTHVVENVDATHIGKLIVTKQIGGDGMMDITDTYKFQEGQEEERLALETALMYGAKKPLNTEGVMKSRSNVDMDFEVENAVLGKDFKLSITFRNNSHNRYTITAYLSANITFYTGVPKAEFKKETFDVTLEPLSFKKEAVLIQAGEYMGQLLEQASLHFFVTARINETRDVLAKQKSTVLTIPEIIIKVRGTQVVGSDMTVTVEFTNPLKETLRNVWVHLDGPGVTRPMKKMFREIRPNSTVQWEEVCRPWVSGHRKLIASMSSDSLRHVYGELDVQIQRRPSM
Description: TGase isozyme selectivity, FXIIIa with A101 substrate. The class given is biochemical. The following applies: [I]/α identical to that of the TG2 assay.
Description: as §1, §2

Peptide text beside a SMILES is read from it. * marks the point of attachment. X1 = C=CC(=O)NCCCCC(NC(=O)OCc1ccccc1)C(=O)N1CCN(C(=O)C(CCC(=O)*)NC(=O)c2cccc3ccccc23)CC1

Two compounds from publication PMC10454375, “Cell-Impermeable Inhibitors Confirm That Intracellular Human Transglutaminase 2 Is Responsible for the Transglutaminase-Associated Cancer Phenotype” (International Journal of Molecular Sciences, 2023) can be followed below.

By logD is commonly meant the decadic logarithm of the distribution of all forms, ionised or not, between an organic phase and buffer at a given pH. Read a low logD as lower lipophilicity. What is called efflux ratio is the permeability from basolateral to apical divided by that in the opposite direction, in the common usage. Broadly, the Papp A→B is the apparent permeability from the apical to the basolateral side of a cell layer. What is called Papp B→A is how fast a substance crosses the layer from the basolateral side. In the case of `C=CC(=O)NCCCCC(NC(=O)OCc1ccccc1)C(=O)N1CCN(C(=O)C(CCC(=O)NCCCCCC(=O)NC(CC(=O)O)C(=O)NC(CC(=O)O)C(=O)NC(CC(=O)O)C(=O)O)NC(=O)c2cccc3ccccc23)CC1` (stereo not drawn) [Compound 17], in the data set “Log D”, the logD was less than -2.73. In the data set with P-gp, the efflux ratio was found to be 1.39. Moreover, in data set [1], the Papp A→B was determined as 0.31 ×10⁻⁶ cm/s and the Papp B→A is 0.42 ×10⁻⁶ cm/s. The “inhibition of TG1” value at TG1 is reported as “no detectable inhibition”. The “inhibition of Factor XIII” value on FXIIIa is on record as “no detectable inhibition”.

In “Log D”, `C=CC(=O)NCCCCC(NC(=O)OCc1ccccc1)C(=O)N1CCN(C(=O)C(CCC(=O)NCC(=O)NCC(=O)NCC(=O)NC(CC(=O)O)C(=O)NC(CC(=O)O)C(=O)NC(CC(=O)O)C(=O)O)NC(=O)c2cccc3ccccc23)CC1` (stereo not drawn) [Compound 18] (X1-GGGDDD-OH; configuration not given here) registered a logD of less than -2.63. In addition, in the data set on P-gp, the efflux ratio is 1.18. Besides, in data set [1], the Papp A→B is 0.47 ×10⁻⁶ cm/s and the Papp B→A stood at 0.56 ×10⁻⁶ cm/s. On TG1, the “inhibition of TG1” value is listed as “no detectable inhibition”. Besides, at FXIIIa, the “inhibition of Factor XIII” value is “no detectable inhibition”.
